The subject of assay [1] is NCI-H226. The assay can be described thus: 72H TEAD Proliferation Assay (Cell Titer-Glo 2.0). The format is cell-based. The conditions noted are these: Homo sapiens, NCI-H226, 72 h, CTG 2.0, cell line not given. How it is done: The effect of TEAD inhibition on cell proliferation was assayed using Cell Titer Glo (CTG) 2.0 to measure response in mesothelioma cell lines NCI-H226 (ATCC, #CRL-5826) and NCI-H28 (ATCC, #CRL-5820).
The 72H TEAD Proliferation assay utilizes Cell Titer-Glo 2.0 (Promega, #G9243) to measure the proliferation of cells in the presence or absence of compound. Cell Titer-Glo 2.0 determines the amount of viable cells by quantifying ATP (an indication of metabolically active cells). It utilizes the conversion of Luciferin to Oxyluciferin and a luminescent signal with the use of ATP to report the quantity of viable cells in culture. Within cells that are continually growing, ATP is being synthesized to meet their metabolic demands, meanwhile the opposite is true for cells that are dying or slowing down their proliferation and either no longer using ATP or are using less, respectively. The NF2-deficient NCI-H226 has been genetically validated as a cell line that is sensitive to TEAD inhibition. The NF2-wild type NCI-H28 has been genetically validated as a cell line that is not sensitive to TEAD inhibition and grows independently of TEAD activity.
Compounds were screened against the responsive NCI-H226 cell line to assess the compounds' ability to inhibit TEAD and cell growth. Compounds were also screened against the non-responsive NCI-H28 cell line to ascertain whether the inhibition of cell growth was due to inhibition of the target TEAD or whether the inhibition was due to off-target cytotoxicity.
1) Assay ready plates (ARPs) were prepared by Echo acoustic liquid handler. For each compound, duplicate of 10-point half-log dilution series were dispensed in a 384-well microplate (Corning 3571).
5) NCI-H226 or NCI-H28 cells were harvested from culture in Assay Medium 1 and the multidrop Combi reagent dispenser was used to seed cells at 500 cells per 50 ul in each well of the ARPs and one Corning 3571 plate without compounds for Time 0 (TO) readout.
6) The TO plate was incubated for 2 hours at 37° C. with 5% CO2 to allow cells to settle, then the CTG Assay was performed.
7) All ARPs were incubated for 72 hours at 37° C. with 5% CO2, then the CTG Assay was performed for Time 72H (T72) readout.
8) CTG Assay: Bravo liquid handler (Agilent) was used to add 25 ul of CTG 2.0 to all columns of the plate except for Column 24, which was used to subtract out the background. After CTG addition, plates were placed on shaker at 800 RPM for 15 minutes at room temperature and kept in the dark. Luminescence was measured using EnVision multilabel plate reader with ultra-sensitive detection module.
9) Data Analysis: First background luminescence (no CTG wells) was subtracted from luminescence reading of all wells, then TO luminescence was subtracted from T72 luminescence. To compare anti-proliferative effect of compounds, GI50 was obtained by fitting dose response curves with nonlinear regression curve fit.
On the technique in general: In ATP-based viability assays light output follows the ATP content of the culture.

For assay [2], the target named is TEAD1 protein (YAP Binding Domain) (Homo sapiens, UniProt P28347). The experiment in a line: TEAD1 lipid pocket compound displacement assay (TR-FRET, Cy5-probe). The following applies: 60 minutes incubation at room temperature; TR-FRET 665 nm/620 nm; read-out: CDA IC50. How it is done: Compound Displacement Assay.
Sequence of TEAD1 protein (YAP Binding Domain) (P28347 209-426 limits assumed): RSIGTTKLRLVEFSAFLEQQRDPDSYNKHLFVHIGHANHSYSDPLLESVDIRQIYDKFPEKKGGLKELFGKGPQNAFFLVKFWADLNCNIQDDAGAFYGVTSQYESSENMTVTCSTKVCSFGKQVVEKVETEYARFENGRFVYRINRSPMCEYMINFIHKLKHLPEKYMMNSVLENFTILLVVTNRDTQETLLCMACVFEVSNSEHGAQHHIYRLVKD
A TEAD1 lipid pocket displacement assay was carried out according to the following protocol. Purified His-tagged TEAD1 protein (YAP Binding Domain) was pre-mixed with a Cy5-probe (Cy5-conjugated to a small molecule that binds in the TEAD1 lipid pocket) and Terbium-labeled anti-His antibody (Cisbio Cat 61HI2TLB). The binding of the Cy5-probe to anti-His-Tb/His-tag TEAD1 complex yielded a TR-FRET signal. […] After 60 minutes incubation at room temperature of compounds with the His-TEAD1/anti-His-Tb/Cy5-probe complex, the plate was read on a plate reader (BMG ClarioStar Cat 430-1300) using TR-FRET mode with wavelengths of 665 nm/620 nm. The potency of compounds as TEAD1 lipid pocket binders was determined by IC50 value generated using a non-linear 4 parameter curve fit.

SMILES strings stand for the structures.

What is called GI50 is the concentration that inhibits growth by half. Low values mean greater sensitivity of the cells, high ones lower sensitivity of the cells. The term IC50 denotes the midpoint of a concentration-inhibition curve. In assay [1], `C=CC(=O)Nc1ccc(OCC2CCC(F)(F)CC2)c2ocnc12` [Compound 21, N-(7-((4,4-difluorocyclohexyl)methoxy)benzo[d]oxazol-4-yl)acrylamide] gave a 50% growth inhibitory concentration (GI50) of at most 250 nM. Moreover, in assay [2], the half-maximal inhibitory concentration (IC50) is at most 250 nM.

For the molecule `C=CC(=O)Nc1ccc(OCC2CCC(F)(F)CC2)c2[nH]cnc12` [Compound 22, N-(7-((4,4-difluorocyclohexyl)methoxy)-1H-benzo[d]imidazol-4-yl)acrylamide], the 50% growth inhibitory concentration (GI50) in assay [1] fell in the range of 250 to 1000 nM. Further, the half-inhibitory concentration (IC50) in assay [2] lay in the range of 500 to 2000 nM.

Turning to `C=CC(=O)Nc1ccc(OCC2CCC(F)(F)CC2)c2ccnn12` [Compound 23, N-(4-((4,4-difluorocyclohexyl)methoxy)pyrazolo[1,5-a]pyridin-7-yl)acrylamide], the GI50 in assay [1] lay within 1000 to 3000 nM. In assay [2], the IC50 is at most 250 nM.

Molecule `C=CC(=O)Nc1ccc(OCC2CCCC(F)(F)C2)c(F)c1` (stereo not drawn) [Compound 24, N-(4-((3,3-difluorocyclohexyl)methoxy)-3-fluorophenyl)acrylamide] displayed a 50% growth inhibitory concentration (GI50) in assay [1] of at most 250 nM. In addition, in assay [2], the half-inhibitory concentration (IC50) is at most 250 nM.

In turn, `C=CC(=O)Nc1ccc(OCc2cccc(CC)c2)c(F)c1` [Compound 26, N-(4-((3-ethylbenzyl)oxy)-3-fluorophenyl)acrylamide] yielded a GI50 in assay [1] of 250 to 1000 nM. For the same molecule, the IC50 in assay [2] is at most 250 nM.

The molecule `C=CC(=O)Nc1ccc(/C=C/c2cccc(F)c2)c(F)c1` [Compound 27, (E)-N-(3-fluoro-4-(3-fluorostyryl)phenyl)acrylamide] yielded a GI50 in assay [1] of 1000 to 3000 nM. Further, the half-maximal inhibitory concentration (IC50) in assay [2] is 500 to 2000 nM.

Turning to `C=CC(=O)Nc1ccc(COc2cccc(F)c2)c(F)c1` [Compound 28, N-(3-fluoro-4-((3-fluorophenoxy)methyl)phenyl)acrylamide], the GI50 in assay [1] fell in the range of 250 to 1000 nM. In addition, the IC50 in assay [2] lay within 250 to 500 nM.

Consider `C=CC(=O)Nc1ccc(COc2cccc(C(F)(F)F)c2)c(F)c1` [Compound 31, N-(3-fluoro-4-((3-(trifluoromethyl)phenoxy)methyl)phenyl)acrylamide], for which, in assay [1], the 50% growth inhibitory concentration (GI50) is at most 250 nM. The IC50 in assay [2] is at most 250 nM.

`C=CC(=O)Nc1ccc(OCc2cccc(C(F)(F)F)c2)c(C#N)c1` [Compound 38, N-(3-cyano-4-((3-(trifluoromethyl)benzyl)oxy)phenyl)acrylamide] registered a GI50 in assay [1] of 1000 to 3000 nM. For the same molecule, the IC50 in assay [2] is 500 to 2000 nM.

`C=CC(=O)Nc1ccc(OCc2cccc(F)c2Cl)c(C#N)c1` [Compound 39, N-(4-((2-chloro-3-fluorobenzyl)oxy)-3-cyanophenyl)acrylamide] came in with a 50% growth inhibitory concentration (GI50) in assay [1] of at most 250 nM. The IC50 in assay [2] was 250 to 500 nM.

For the molecule `C=CC(=O)Nc1ccc(OCc2ccc(F)c(F)c2)c(C#N)c1` [Compound 40, N-(3-cyano-4-((3,4-difluorobenzyl)oxy)phenyl)acrylamide], the GI50 in assay [1] was in the range of 1000 to 3000 nM. In addition, the IC50 in assay [2] fell in the range of 500 to 2000 nM.

In the case of `C=CC(=O)Nc1ccc(OCc2cncc(C(F)(F)F)c2)c(C#N)c1` [Compound 41, N-(3-cyano-4-((5-(trifluoromethyl)pyridin-3-yl)methoxy)phenyl)acrylamide], in assay [1], the GI50 was over 3000 nM. In addition, the IC50 in assay [2] was over 2000 nM.

Regarding `C=CC(=O)Nc1ccc(OCc2cncc(C(F)(F)F)c2)cc1C#N` [Compound 42, N-(2-cyano-4-((5-(trifluoromethyl)pyridin-3-yl)methoxy)phenyl)acrylamide], the GI50 in assay [1] lay within 250 to 1000 nM. In assay [2], the IC50 is over 2000 nM.

`C=CC(=O)Nc1ccc(OCC2CCC(F)(F)CC2)c2ccccc12` [Compound 49, N-(4-((4,4-difluorocyclohexyl)methoxy)naphthalen-1-yl)acrylamide]: in assay [1], the GI50 is at most 250 nM. In addition, the IC50 in assay [2] was at most 250 nM.

For `C=CC(=O)Nc1ccc(OCC2CCC(F)(F)CC2)c(C#N)c1` [Compound 50, N-(3-cyano-4-((4,4-difluorocyclohexyl)methoxy)phenyl)acrylamide], in assay [1], the GI50 is at most 250 nM. The IC50 in assay [2] is at most 250 nM.

The molecule `C=CC(=O)Nc1ccc(OCc2cccc(F)c2)c(C)c1` [Compound 51, N-(4-((3-fluorobenzyl)oxy)-3-methylphenyl)acrylamide] displayed a concentration for 50% growth inhibition (GI50) in assay [1] of over 3000 nM. Besides, in assay [2], the IC50 was 250 to 500 nM.

As to `C=CC(=O)Nc1ccc(OCC2CCOCC2)c(F)c1` [Compound 54, N-(3-fluoro-4-((tetrahydro-2H-pyran-4-yl)methoxy)phenyl)acrylamide], in assay [1], the GI50 fell in the range of 1000 to 3000 nM. In addition, the IC50 in assay [2] is over 2000 nM.

For `C=CC(=O)Nc1ccc(OCC2CCCCC2)c(F)c1` [Compound 55, N-(4-(cyclohexylmethoxy)-3-fluorophenyl)acrylamide], the 50% growth inhibitory concentration (GI50) in assay [1] was 250 to 1000 nM. Further, the IC50 in assay [2] is at most 250 nM.

Consider `C=CC(=O)Nc1ccc(OCc2csc3ccccc23)c(F)c1` [Compound 60, N-(4-(benzo[b]thiophen-3-ylmethoxy)-3-fluorophenyl)acrylamide], for which the concentration for 50% growth inhibition (GI50) in assay [1] is over 3000 nM. Besides, in assay [2], the IC50 lay within 500 to 2000 nM.

`C=CC(=O)Nc1ccc(OCc2ccc(C#N)s2)c(F)c1` [Compound 63, N-(4-((5-cyanothiophen-2-yl)methoxy)-3-fluorophenyl)acrylamide]: in assay [1], the concentration for 50% growth inhibition (GI50) was in the range of 1000 to 3000 nM. For the same molecule, the 50% inhibitory concentration (IC50) in assay [2] lay within 500 to 2000 nM.

As for `C=CC(=O)Nc1ccc(OCc2cncc(C)c2)c(F)c1` [Compound 71, N-(3-fluoro-4-((5-methylpyridin-3-yl)methoxy)phenyl)acrylamide], in assay [1], the GI50 was over 3000 nM. For the same molecule, the half-inhibitory concentration (IC50) in assay [2] was over 2000 nM.

In assay [1], `C=CC(=O)Nc1ccc(OCc2ccc(Cl)nc2)c(F)c1` [Compound 72, N-(4-((6-chloropyridin-3-yl)methoxy)-3-fluorophenyl)acrylamide] had a GI50 of over 3000 nM. Also, the IC50 in assay [2] lay in the range of 500 to 2000 nM.

In turn, `C=CC(=O)Nc1ccc(OCc2cccnc2Br)c(F)c1` [Compound 74, N-(4-((2-bromopyridin-3-yl)methoxy)-3-fluorophenyl)acrylamide] returned a GI50 in assay [1] of over 3000 nM. In addition, the IC50 in assay [2] was over 2000 nM.

In the case of `C=CC(=O)Nc1ccc(OCc2cccnc2Cl)c(F)c1` [Compound 76, N-(4-((2-chloropyridin-3-yl)methoxy)-3-fluorophenyl)acrylamide], the GI50 in assay [1] was over 3000 nM. In addition, the half-maximal inhibitory concentration (IC50) in assay [2] is over 2000 nM.

In assay [1], `C=CC(=O)Nc1ccc(OCc2cc(F)ccc2Cl)c(F)c1` [Compound 78, N-(4-((2-chloro-5-fluorobenzyl)oxy)-3-fluorophenyl)acrylamide] had a GI50 of over 3000 nM. In assay [2], the IC50 fell in the range of 500 to 2000 nM.

On to `C=CC(=O)Nc1ccc(OCc2cccc(F)c2Cl)c(F)c1` [Compound 83, N-(4-((2-chloro-3-fluorobenzyl)oxy)-3-fluorophenyl)acrylamide], for which the 50% growth inhibitory concentration (GI50) in assay [1] lay within 250 to 1000 nM. Moreover, in assay [2], the IC50 is at most 250 nM.

In assay [1], `C=CC(=O)Nc1ccc(OCc2ccc(F)cc2Cl)c(F)c1` [Compound 84, N-(4-((2-chloro-4-fluorobenzyl)oxy)-3-fluorophenyl)acrylamide] came in with a concentration for 50% growth inhibition (GI50) of 1000 to 3000 nM. Also, the IC50 in assay [2] was in the range of 500 to 2000 nM.

In assay [1], `C=CC(=O)Nc1ccc(OCC2CCCC(C(F)(F)F)C2)c(F)c1` (stereo not drawn) [Compound 91, N-(3-fluoro-4-((3-(trifluoromethyl)cyclohexyl)methoxy)phenyl)acrylamide] showed a concentration for 50% growth inhibition (GI50) of 250 to 1000 nM. The half-maximal inhibitory concentration (IC50) in assay [2] was at most 250 nM.

Take `C=CC(=O)Nc1ccc(OCc2ccc(F)c(F)c2)c(F)c1` [Compound 96, N-(4-((3,4-difluorobenzyl)oxy)-3-fluorophenyl)acrylamide]: the GI50 in assay [1] was in the range of 250 to 1000 nM. The IC50 in assay [2] is at most 250 nM.

Turning to `C=CC(=O)Nc1ccc(OCc2cnc(C(F)(F)F)nc2)c(F)c1` [Compound 98, N-(3-fluoro-4-((2-(trifluoromethyl)pyrimidin-5-yl)methoxy)phenyl)acrylamide], in assay [1], the 50% growth inhibitory concentration (GI50) is 1000 to 3000 nM. The IC50 in assay [2] is over 2000 nM.

For the origin of these results see patent US20230115350A1 (Cedilla Therapeutics, Inc., priority 2021, published 2023).
